Values of other authors in patent EP0527762B1, “INHIBITION OF ALLOGRAFT AND […] REJECTION” (priority 1990, dated 1991).

System: rabbit kidney xenografts
Details: rabbit kidney into cats, discordant

| SMILES | prevention of hyperacute rejection |
| --- | --- |
| C[C@H](CS)C(=O)N1CCC[C@H]1C(=O)O [captopril] | not prevented |
| CCOC(=O)[C@H](CCc1ccccc1)N[C@@H](C)C(=O)N1CCC[C@H]1C(=O)O [enalapril] | not prevented |
| CCCCC[C@H](O)/C=C/[C@@H]1[C@H]2C/C(=C/CCCC(=O)O)O[C@H]2C[C@H]1O [prostacyclin] | not prevented |
| O=C(O)c1cc(=O)c2c(OCC(O)COc3cccc4oc(C(=O)O)cc(=O)c34)cccc2o1 [sodium chromoglycate] | not prevented |
